Test results taken from article PMC11601558, “SLC6A19 inhibition facilitates urinary neutral amino acid excretion and lowers plasma phenylalanine” (JCI Insight, 2024).
Where “and” joins values, the source holds several entries; their conditions need not be identical. Equal entries are not always repeated.

Tested on: WT C57Bl/6J mice
Test: Urine amino acid excretion in WT C57Bl/6J mice after JN-170
Type: in vivo, mouse
Design: urine Gln excretion / urine Phe excretion: unit not given here
Conditions: for 12 hour urine Arg (Fig 2b) / 12 hour urine Gln (Fig 2b) / 12 hour urine Glu (Fig 2b) / 12 hour urine His (Fig 2b) / 12 hour urine Lys (Fig 2b) / 12 hour urine Met (Fig 2b) / 12 hour urine Phe (Fig 2b) / 12 hour urine Pro (Fig 2b) / 12 hour urine Ser (Fig 2b) / 12 hour urine Thr (Fig 2b) / 12 hour urine Trp (Fig 2b) / 12 hour urine Tyr (Fig 2b): individual mice
Experimental: Male homozygous BTBR-Pah<enu2>/J (Pah^enu2) aged 10–13 weeks were purchased from Jackson Laboratory (no. 002232). Immediately before dosing, each animal’s bladder was manually emptied and a plasma sample was drawn. Animals were dosed by oral gavage with vehicle (10% DMSO, 20% 2-hydroxypropyl-β-cyclodextrin [Sigma-Aldrich]) followed by a 1-week washout prior to dosing with JN-170 at doses ranging from 50 to 250 mg/kg. Following dosing with vehicle or JN-170, animals were individually placed in metabolic cages to collect urine samples. After collection of each urine sample, cages were rinsed with ultra-pure water to recover residual analytes. Blood samples were collected predose as well as 1, 3, 8, 12, and 24 hours after dosing with vehicle or JN-170 into tubes with EDTA as a […], and plasma was separated by centrifuging samples at 2,200g for 5 minutes at 4°C. Throughout the study, mice had access to food and water ad libitum. Plasma and urine samples were stored at –80°C until processing.Ten-week-old male WT C57Bl/6J animals (Si Bei Fu Laboratory Animal Technology Co. Ltd.) were dosed either with vehicle or 50–250 mg/kg JN-170 by oral gavage and blood and urine samples were collected as described. All animals had unrestricted access to food and water during the study; C57Bl/6J were kept on rodent maintenance diet from Beijing Keao Xieli, Pah^enu2 mice were kept on Teklad diet no. T.2018.
Urine and cage-wash samples were vortexed and centrifuged at 3,700g for 5 minutes to remove any solid precipitate. Neat samples and samples diluted 1:10 in water were further diluted 1:10 in crash solution (75% acetonitrile 25% methanol, 0.1% formic acid, 5 mM heavy labeled amino acids) to precipitate proteins. Samples were centrifuged at 3,700g for 5 minutes before the supernatant was transferred into an injection plate. Urine amino acid analysis was carried out using a quadrupole time of flight (QToF) LC-mass spectrometry (QToF-LC-MS) bioanalytical method. A standard curve of 1 mM down to 0.06 μM was used as the calibration curve to which samples were quantified. The amino acid concentrations were calculated with a 1/×2 linear regression over a concentration range of 60 nM to 1,000 μM of the individual amino acids. An Agilent QToF 6545 was operated in an accurate mass full scan range of 100–1,700 m/z positive ions formed by electrospray ionization with a normal phase HILIC chromatographic method. An Agilent InfinityLab Poroshell 120 HILIC-Z, 2.1 × 150 mm, 2.7 μm was used as the analytical column with 10 mM Ammonium Acetate in 0.1% FA as mobile phase A and 10 mM Ammonium Acetate in 95% ACN, 0.1% FA as mobile phase B. At a flow rate of 0.25 mL/min, the binary gradient increased from an initial 100% phase B to 90% phase B over 3 minutes. After 1.5 minutes, the gradient ramped to 80% mobile phase B. At 5.6 minutes into the gradient, mobile phase B ramped from 60% to 0% and held for 2 minutes before returning to initial conditions at 7.5 minutes. The gradient was stopped at 10 minutes.Total urine amino acid amounts were calculated by multiplying urine amino acid concentrations by the urine volume and adding the amount of amino acid recovered in the cage wash, which was calculated by multiplying the cage wash amino acid concentration by the cage wash volume.

[1] = Fig S3b, WT mice, individual animals
[2] = WT mice, 0–3 hours after 200 mg/kg

N#Cc1ccc(-c2noc([C@]3(C(F)(F)F)CCN(C(=O)NCCC4(N)CC4)C3)n2)cc1 [JN-170]
12 hour urine Arg (Fig 2b) (50 mg/kg single oral dose): 42.35 µg and 21.61 µg and 86.86 µg and 32.17 µg and 60.46 µg and 54.76 µg | 12 hour urine Gln (Fig 2b) (50 mg/kg single oral dose): 1216.88 µg and 424.1 µg and 3207.04 µg and 1668.39 µg and 2208.59 µg and 1050.68 µg | 12 hour urine Glu (Fig 2b) (50 mg/kg single oral dose): 29.83 µg and 17.33 µg and 39.89 µg and 30.41 µg and 48.52 µg and 28.91 µg | 12 hour urine His (Fig 2b) (50 mg/kg single oral dose): 99.8 µg and 39.7 µg and 232.38 µg and 133.78 µg and 173.51 µg and 97.64 µg | 12 hour urine Lys (Fig 2b) (50 mg/kg single oral dose): 34.24 µg and 15.87 µg and 87.69 µg and 25.64 µg and 70.14 µg and 37.6 µg | 12 hour urine Met (Fig 2b) (50 mg/kg single oral dose): 22.43 µg and 9.44 µg and 86.47 µg and 39.61 µg and 54.33 µg | 12 hour urine Phe (Fig 2b) (50 mg/kg single oral dose): 9.69 µg and 12.9 µg and 44.78 µg and 18.25 µg and 46.82 µg and 10.07 µg | 12 hour urine Pro (Fig 2b) (50 mg/kg single oral dose): 8.47 µg and 4.8 µg and 12.9 µg and 9.81 µg and 24.06 µg and 10.26 µg | 12 hour urine Ser (Fig 2b) (50 mg/kg single oral dose): 30.76 µg and 12.92 µg and 98.91 µg and 47.01 µg and 97.58 µg and 29.03 µg | 12 hour urine Thr (Fig 2b) (50 mg/kg single oral dose): 158.71 µg and 83.75 µg and 358.72 µg and 229.83 µg and 330.77 µg and 183.12 µg | 12 hour urine Trp (Fig 2b) (50 mg/kg single oral dose): 7.91 µg and 4.53 µg and 17.51 µg and 12.59 µg and 19.36 µg and 8.39 µg | 12 hour urine Tyr (Fig 2b) (50 mg/kg single oral dose): 86.45 µg and 42.23 µg and 289.76 µg and 150.67 µg and 234.77 µg and 101.34 µg | 12 hour urine Arg (Fig 2b) (100 mg/kg single oral dose): 84.18 µg and 60.05 µg and 104.07 µg and 105.27 µg and 46.38 µg and 44.86 µg | 12 hour urine Gln (Fig 2b) (100 mg/kg single oral dose): 3618.3 µg and 3716.4 µg and 5677.3 µg and 3847.03 µg and 3083.95 µg and 2876.64 µg | 12 hour urine Glu (Fig 2b) (100 mg/kg single oral dose): 46.32 µg and 46.97 µg and 58.94 µg and 50.51 µg and 40.88 µg and 28.49 µg | 12 hour urine His (Fig 2b) (100 mg/kg single oral dose): 295.94 µg and 255.87 µg and 436.69 µg and 286 µg and 268.58 µg and 216 µg | 12 hour urine Lys (Fig 2b) (100 mg/kg single oral dose): 113.28 µg and 69.96 µg and 170.84 µg and 119.16 µg and 64.12 µg and 61.63 µg | 12 hour urine Met (Fig 2b) (100 mg/kg single oral dose): 69.6 µg and 61.3 µg and 109.16 µg and 65.46 µg and 59.17 µg and 56.84 µg | 12 hour urine Phe (Fig 2b) (100 mg/kg single oral dose): 57.79 µg and 56.42 µg and 118.09 µg and 57.72 µg and 36.93 µg and 35.59 µg | 12 hour urine Pro (Fig 2b) (100 mg/kg single oral dose): 8.92 µg and 10.04 µg and 30.88 µg and 13.13 µg and 10.09 µg and 9.04 µg | 12 hour urine Ser (Fig 2b) (100 mg/kg single oral dose): 108.24 µg and 109.95 µg and 223.3 µg and 89.79 µg and 97.93 µg and 80.73 µg | 12 hour urine Thr (Fig 2b) (100 mg/kg single oral dose): 506.96 µg and 408.61 µg and 713.8 µg and 526.01 µg and 450.28 µg and 363.04 µg | 12 hour urine Trp (Fig 2b) (100 mg/kg single oral dose): 23.65 µg and 18.61 µg and 32.89 µg and 21.7 µg and 20.33 µg and 13.52 µg | 12 hour urine Tyr (Fig 2b) (100 mg/kg single oral dose): 347.53 µg and 292.84 µg and 493.76 µg and 286.11 µg and 269.6 µg and 215.7 µg | 12 hour urine Arg (Fig 2b) (200 mg/kg single oral dose): 57.75 µg and 78.23 µg and 75.91 µg and 43.73 µg and 83.72 µg and 75.77 µg | 12 hour urine Gln (Fig 2b) (200 mg/kg single oral dose): 4199.73 µg and 4322.77 µg and 4076.82 µg and 4061.16 µg and 5861.18 µg and 4643.5 µg | 12 hour urine Glu (Fig 2b) (200 mg/kg single oral dose): 38.45 µg and 57.79 µg and 49.69 µg and 35.38 µg and 50.26 µg and 67.43 µg | 12 hour urine His (Fig 2b) (200 mg/kg single oral dose): 416.82 µg and 349.23 µg and 335.84 µg and 309.72 µg and 451.38 µg and 370.2 µg | 12 hour urine Lys (Fig 2b) (200 mg/kg single oral dose): 104.5 µg and 123.16 µg and 131.26 µg and 79.18 µg and 151.5 µg and 70.63 µg | 12 hour urine Met (Fig 2b) (200 mg/kg single oral dose): 123.47 µg and 86.31 µg and 49.16 µg and 59.08 µg and 101.09 µg and 139.58 µg | 12 hour urine Phe (Fig 2b) (200 mg/kg single oral dose): 133.44 µg and 84.26 µg and 51.41 µg and 40.35 µg and 175.28 µg and 83.35 µg | 12 hour urine Pro (Fig 2b) (200 mg/kg single oral dose): 13.11 µg and 14.35 µg and 18.33 µg and 8.21 µg and 20.58 µg and 15.61 µg | 12 hour urine Ser (Fig 2b) (200 mg/kg single oral dose): 170.69 µg and 159.37 µg and 110.1 µg and 92.34 µg and 194.17 µg and 159.84 µg | 12 hour urine Thr (Fig 2b) (200 mg/kg single oral dose): 631.21 µg and 617.4 µg and 618.83 µg and 576.45 µg and 832.11 µg and 699.79 µg | 12 hour urine Trp (Fig 2b) (200 mg/kg single oral dose): 40.01 µg and 30.26 µg and 27.35 µg and 18.62 µg and 33.13 µg and 31.85 µg | 12 hour urine Tyr (Fig 2b) (200 mg/kg single oral dose): 480.66 µg and 434.44 µg and 355.04 µg and 315.96 µg and 607.88 µg and 491.56 µg | 12 hour urine Arg (Fig 2b) (250 mg/kg single oral dose): 80.65 µg and 55.84 µg and 88.5 µg and 63.14 µg and 86.48 µg and 72.88 µg | 12 hour urine Gln (Fig 2b) (250 mg/kg single oral dose): 7107.31 µg and 3727.75 µg and 5603.56 µg and 4267.69 µg and 6411.47 µg and 5312.07 µg | 12 hour urine Glu (Fig 2b) (250 mg/kg single oral dose): 72.56 µg and 44.09 µg and 57.4 µg and 37.58 µg and 54.56 µg and 45.85 µg | 12 hour urine His (Fig 2b) (250 mg/kg single oral dose): 551.64 µg and 312.28 µg and 484.93 µg and 357.16 µg and 531.6 µg and 380.26 µg | 12 hour urine Lys (Fig 2b) (250 mg/kg single oral dose): 195.46 µg and 113.58 µg and 174.58 µg and 158.8 µg and 185.91 µg and 135.3 µg | 12 hour urine Met (Fig 2b) (250 mg/kg single oral dose): 187.74 µg and 68.61 µg and 113.61 µg and 89.08 µg and 102.86 µg and 165.83 µg | 12 hour urine Phe (Fig 2b) (250 mg/kg single oral dose): 183.47 µg and 73.49 µg and 113.19 µg and 97.89 µg and 98.25 µg and 112.7 µg | 12 hour urine Pro (Fig 2b) (250 mg/kg single oral dose): 23.91 µg and 11.83 µg and 17.19 µg and 13.18 µg and 15.23 µg and 18.44 µg | 12 hour urine Ser (Fig 2b) (250 mg/kg single oral dose): 292.3 µg and 114.91 µg and 195.78 µg and 144.05 µg and 202.42 µg and 201.61 µg | 12 hour urine Thr (Fig 2b) (250 mg/kg single oral dose): 952.09 µg and 536.61 µg and 931.14 µg and 639.81 µg and 964.07 µg and 684.47 µg | 12 hour urine Trp (Fig 2b) (250 mg/kg single oral dose): 51.77 µg and 27.86 µg and 38.14 µg and 35.4 µg and 37.19 µg and 32.26 µg | 12 hour urine Tyr (Fig 2b) (250 mg/kg single oral dose): 668.76 µg and 364.7 µg and 555.89 µg and 445.94 µg and 662.56 µg and 523.46 µg | increase in urinary Gln excretion vs vehicle (250 mg/kg, 12 h urine): 84 fold | increase in urinary His excretion vs vehicle (250 mg/kg, 12 h urine): 32 fold | increase in urinary Thr excretion vs vehicle (250 mg/kg, 12 h urine): 29 fold | urinary Gln excretion, mean ± SD (250 mg/kg, 12 h urine): 5,405 ± 1270 μg | urinary His excretion, mean ± SD (250 mg/kg, 12 h urine): 436 ± 100 µg | urinary Thr excretion, mean ± SD (250 mg/kg, 12 h urine): 785 ± 187 µg | urinary Pro excretion, mean ± SD (250 mg/kg, 12 h urine, effect negligible): 17 ± 4 µg | urine Gln excretion [1]: 1587.77 and 1811.58 and 1136.33 and 1371.1 and 1542.95 and 797.75 | urine Phe excretion [1]: 31.41 and 35.2 and 15.95 and 12.69 and 89.66 and 34.45 | glutamine excreted in urine, mean ± SD [2]: 1,375 ± 362 μg | urinary excretion of Phe, mean ± SD [2]: 37 ± 28 µg
